From ChEMBL document CHEMBL3885881, “DrugMatrix”

Organism: Rattus norvegicus
Test: DrugMatrix - Regimen: Daily Repeat
Format: toxicity, organism-based, Sprague-Dawley
Set-up: regimen Daily Repeat, gender Male, age 6-8 weeks
Conditions: in vivo, po, route oral GAVAGE, vehicle 60 % PEG400; for URIC ACID / ALANINE AMINOTRANSFERASE / ALBUMIN / ALKALINE PHOSPHATASE / ASPARTATE AMINOTRANSFERASE / BLOOD UREA NITROGEN / CARBON DIOXIDE / CHLORIDE / CHOLESTEROL / CREATINE PHOSPHOKINASE / CREATININE / GLUCOSE / LACTATE DEHYDROGENASE / LIPASE / PHOSPHORUS / POTASSIUM / SODIUM / TOTAL BILIRUBIN / TOTAL PROTEIN: tissue Plasma; for ABSOLUTE BASOPHIL / ABSOLUTE EOSINOPHIL / ABSOLUTE LYMPHOCYTE / ABSOLUTE MONOCYTE / ABSOLUTE SEGMENTED NEUTROPHIL / BASOPHIL / EOSINOPHIL / ERYTHROCYTE COUNT / HEMATOCRIT / HEMOGLOBIN / LEUKOCYTE COUNT / LYMPHOCYTE / MEAN CORPUSCULAR HEMOGLOBIN / MEAN CORPUSCULAR HEMOGLOBIN CONCENTRATION / MEAN CORPUSCULAR VOLUME / MONOCYTE / NEUTROPHIL / NUCLEATED RED BLOOD CELLS / PLATELET COUNT: tissue Blood
[1] = 0.001 mg/kg, 120 h, dose level Low, time 5 day
[2] = 0.1 mg/kg, 72 h, dose level High, time 3 day
[3] = 0.1 mg/kg, 120 h, dose level High, time 5 day

SMILES: N[C@@H](Cc1cc(I)c(Oc2ccc(O)c(I)c2)c(I)c1)C(=O)O [LIOTHYRONINE]
- URIC ACID (0.001 mg/kg, 72 h, dose level Low, time 3 day): 1.37 mg/dL
- ABSOLUTE BASOPHIL [1]: 0 CELLS/uL
- ABSOLUTE EOSINOPHIL [1]: 0 CELLS/uL
- ABSOLUTE LYMPHOCYTE [1]: 5590 CELLS/uL
- ABSOLUTE MONOCYTE [1]: 0 CELLS/uL
- ABSOLUTE SEGMENTED NEUTROPHIL [1]: 543.33 CELLS/uL
- BASOPHIL [1]: 0%
- EOSINOPHIL [1]: 0%
- ERYTHROCYTE COUNT [1]: 5.59 x10E6/uL
- HEMATOCRIT [1]: 33.3%
- HEMOGLOBIN [1]: 12.43 G/DL
- LEUKOCYTE COUNT [1]: 6.13 x10E3/uL
- LYMPHOCYTE [1]: 91%
- MEAN CORPUSCULAR HEMOGLOBIN [1]: 22.27 pg
- MEAN CORPUSCULAR HEMOGLOBIN CONCENTRATION [1]: 37.37 G/DL
- MEAN CORPUSCULAR VOLUME [1]: 59.57 fL
- MONOCYTE [1]: 0%
- NEUTROPHIL [1]: 9%
- NUCLEATED RED BLOOD CELLS [1]: 0.67 /100WBC
- PLATELET COUNT [1]: 972.33 x10E3/uL
- ALANINE AMINOTRANSFERASE [1]: 52.67 u/L
- ALBUMIN [1]: 4.57 G/DL
- ALKALINE PHOSPHATASE [1]: 421 u/L
- ASPARTATE AMINOTRANSFERASE [1]: 80.33 u/L
- BLOOD UREA NITROGEN [1]: 15.33 mg/dL
- CARBON DIOXIDE [1]: 31 mmol/L
- CHLORIDE [1]: 100.33 MEQ/L
- CHOLESTEROL [1]: 86 mg/dL
- CREATINE PHOSPHOKINASE [1]: 257.67 u/L
- CREATININE [1]: 0.19 mg/dL
- GLUCOSE [1]: 174.33 mg/dL
- LACTATE DEHYDROGENASE [1]: 98.33 u/L
- LIPASE [1]: 8.33 u/L
- PHOSPHORUS [1]: 12.67 mg/dL
- POTASSIUM [1]: 6.56 MEQ/L
- SODIUM [1]: 144.9 MEQ/L
- TOTAL BILIRUBIN [1]: 0.1 mg/dL
- URIC ACID [1]: 2.23 mg/dL
- ABSOLUTE BASOPHIL [2]: 0 CELLS/uL
- ABSOLUTE EOSINOPHIL [2]: 0 CELLS/uL
- ABSOLUTE LYMPHOCYTE [2]: 13461.67 CELLS/uL
- ABSOLUTE MONOCYTE [2]: 261.67 CELLS/uL
- ABSOLUTE SEGMENTED NEUTROPHIL [2]: 1443.33 CELLS/uL
- BASOPHIL [2]: 0%
- EOSINOPHIL [2]: 0%
- ERYTHROCYTE COUNT [2]: 6.02 x10E6/uL
- HEMATOCRIT [2]: 37%
- HEMOGLOBIN [2]: 14.37 G/DL
- LEUKOCYTE COUNT [2]: 15.17 x10E3/uL
- LYMPHOCYTE [2]: 89.33%
- MEAN CORPUSCULAR HEMOGLOBIN [2]: 23.9 pg
- MEAN CORPUSCULAR HEMOGLOBIN CONCENTRATION [2]: 38.8 G/DL
- MEAN CORPUSCULAR VOLUME [2]: 61.5 fL
- MONOCYTE [2]: 1.67%
- NEUTROPHIL [2]: 9%
- NUCLEATED RED BLOOD CELLS [2]: 0 /100WBC
- PLATELET COUNT [2]: 889 x10E3/uL
- ALANINE AMINOTRANSFERASE [2]: 70.67 u/L
- ALBUMIN [2]: 4.1 G/DL
- ALKALINE PHOSPHATASE [2]: 525 u/L
- ASPARTATE AMINOTRANSFERASE [2]: 112 u/L
- BLOOD UREA NITROGEN [2]: 14.67 mg/dL
- CARBON DIOXIDE [2]: 26.67 mmol/L
- CHLORIDE [2]: 104 MEQ/L
- CHOLESTEROL [2]: 88 mg/dL
- CREATINE PHOSPHOKINASE [2]: 402.67 u/L
- CREATININE [2]: 0.19 mg/dL
- GLUCOSE [2]: 148.67 mg/dL
- LACTATE DEHYDROGENASE [2]: 156.67 u/L
- LIPASE [2]: 14 u/L
- PHOSPHORUS [2]: 15.67 mg/dL
- POTASSIUM [2]: 7.38 MEQ/L
- SODIUM [2]: 147 MEQ/L
- TOTAL BILIRUBIN [2]: 0.13 mg/dL
- TOTAL PROTEIN [2]: 5.67 G/DL
- URIC ACID [2]: 2.47 mg/dL
- ABSOLUTE BASOPHIL [3]: 0 CELLS/uL
- ABSOLUTE EOSINOPHIL [3]: 0 CELLS/uL
- ABSOLUTE LYMPHOCYTE [3]: 3351.33 CELLS/uL
- ABSOLUTE MONOCYTE [3]: 14.67 CELLS/uL
- ABSOLUTE SEGMENTED NEUTROPHIL [3]: 800.67 CELLS/uL
- BASOPHIL [3]: 0%
- EOSINOPHIL [3]: 0%
- ERYTHROCYTE COUNT [3]: 5.59 x10E6/uL
- HEMATOCRIT [3]: 34.2%
- HEMOGLOBIN [3]: 12.77 G/DL
- LEUKOCYTE COUNT [3]: 4.17 x10E3/uL
- LYMPHOCYTE [3]: 80.33%
- MEAN CORPUSCULAR HEMOGLOBIN [3]: 22.83 pg
- MEAN CORPUSCULAR HEMOGLOBIN CONCENTRATION [3]: 37.33 G/DL
- MEAN CORPUSCULAR VOLUME [3]: 61.17 fL
- MONOCYTE [3]: 0.33%
- NEUTROPHIL [3]: 19.33%
- NUCLEATED RED BLOOD CELLS [3]: 0.33 /100WBC
- PLATELET COUNT [3]: 792.67 x10E3/uL
- ALANINE AMINOTRANSFERASE [3]: 69.67 u/L
- ALBUMIN [3]: 4.13 G/DL
- ALKALINE PHOSPHATASE [3]: 576 u/L
- ASPARTATE AMINOTRANSFERASE [3]: 110 u/L
- BLOOD UREA NITROGEN [3]: 12.67 mg/dL
- CARBON DIOXIDE [3]: 32.67 mmol/L
- CHLORIDE [3]: 103.33 MEQ/L
- CHOLESTEROL [3]: 94.67 mg/dL
- CREATINE PHOSPHOKINASE [3]: 218 u/L
- CREATININE [3]: 0.12 mg/dL
- GLUCOSE [3]: 132.67 mg/dL
- LACTATE DEHYDROGENASE [3]: 105.33 u/L
- LIPASE [3]: 12.33 u/L
- PHOSPHORUS [3]: 13.73 mg/dL
- POTASSIUM [3]: 7.47 MEQ/L
- SODIUM [3]: 149.43 MEQ/L
- TOTAL BILIRUBIN [3]: 0.13 mg/dL
- TOTAL PROTEIN [3]: 5.8 G/DL
- URIC ACID [3]: 2.43 mg/dL
